# In patent US20240415914A1, “Water Dispersible Cannabinoid Compositions” (priority 2021, published 2024):
# Where two headings read alike, the source gives them in different places.
# Assays:
# [1] = type: physicochemical; conditions: stored at room temperature (21-25° C.)
# Protocol: At each time period, 0.05 g of powder was dissolved in 10 ml-15 of ethanol, diluted to fall within the analytical range, and injected into the LCMSMS for analysis.
# [2] = Stability of cannabinoid and Vitamin E components of Beverage 2 (AB Red) stored at 8° C. and 21-25° C., LCMSMS over 570 days
# Protocol: The LCMSMS was calibrated for 0-50 ng/ml cannabinoids with the same resin material used in the preparation of the concentrates. At each time period, 100 μml of beverage was diluted with 10 ml of methanol and injected into the LCMSMS for analysis.
smiles,measurement,setting,value
"C=C(C)[C@@H]1CCC(C)=C[C@H]1c1c(O)cc(CCC)cc1O [CBDV, cannabidivarin]",Stability in Powder Concentrate (content by LCMSMS),[1]; day 0,0.050 mg/g powder
same,Stability in Powder Concentrate (content by LCMSMS),[1]; day 1,0.051 mg/g powder
same,Stability in Powder Concentrate (content by LCMSMS),[1]; day 2,0.051 mg/g powder
same,Stability in Powder Concentrate (content by LCMSMS),[1]; day 3,0.048 mg/g powder
same,Stability in Powder Concentrate (content by LCMSMS),[1]; day 5,0.050 mg/g powder
same,Stability in Powder Concentrate (content by LCMSMS),[1]; day 8,0.051 mg/g powder
same,Stability in Powder Concentrate (content by LCMSMS),[1]; day 9,0.049 mg/g powder
same,Stability in Powder Concentrate (content by LCMSMS),[1]; day 10,0.050 mg/g powder
same,Stability in Powder Concentrate (content by LCMSMS),[1]; day 11,0.051 mg/g powder
same,Stability in Powder Concentrate (content by LCMSMS),[1]; day 12,0.051 mg/g powder
same,Stability in Powder Concentrate (content by LCMSMS),[1]; day 15,0.050 mg/g powder
same,Stability in Powder Concentrate (content by LCMSMS),[1]; day 16,0.049 mg/g powder
same,Stability in Powder Concentrate (content by LCMSMS),[1]; day 17,0.051 mg/g powder
same,Stability in Powder Concentrate (content by LCMSMS),[1]; day 18,0.051 mg/g powder
same,Stability in Powder Concentrate (content by LCMSMS),[1]; day 19,0.048 mg/g powder
same,Stability in Powder Concentrate (content by LCMSMS),[1]; day 22,0.049 mg/g powder
same,Stability in Powder Concentrate (content by LCMSMS),[1]; day 23,0.050 mg/g powder
same,Stability in Powder Concentrate (content by LCMSMS),[1]; day 24,0.051 mg/g powder
same,Stability in Powder Concentrate (content by LCMSMS),[1]; day 25,0.052 mg/g powder
same,Stability in Powder Concentrate (content by LCMSMS),[1]; day 26,0.050 mg/g powder
same,Stability in Powder Concentrate (content by LCMSMS),[1]; day 29,0.049 mg/g powder
same,Stability in Powder Concentrate (content by LCMSMS),[1]; day 30,0.051 mg/g powder
same,Stability in Powder Concentrate (content by LCMSMS),[1]; day 60,0.050 mg/g powder
same,Stability in Powder Concentrate (content by LCMSMS),[1]; day 90,0.050 mg/g powder
same,Stability in Powder Concentrate (content by LCMSMS),[1]; day 120,0.050 mg/g powder
same,Stability in Powder Concentrate (content by LCMSMS),[1]; day 150,0.051 mg/g powder
same,Stability in Powder Concentrate (content by LCMSMS),[1]; day 180,0.050 mg/g powder
same,Stability in Powder Concentrate (content by LCMSMS),[1]; day 210,0.049 mg/g powder
same,Stability in Powder Concentrate (content by LCMSMS),[1]; day 240,0.052 mg/g powder
same,Stability in Powder Concentrate (content by LCMSMS),[1]; day 270,0.051 mg/g powder
same,Stability in Powder Concentrate (content by LCMSMS),[1]; day 300,0.049 mg/g powder
same,Stability in Powder Concentrate (content by LCMSMS),[1]; day 330,0.052 mg/g powder
same,Stability in Powder Concentrate (content by LCMSMS),[1]; day 360,0.050 mg/g powder
same,Stability in Powder Concentrate (content by LCMSMS),[1]; day 390,0.049 mg/g powder
same,Stability in Powder Concentrate (content by LCMSMS),[1]; day 420,0.051 mg/g powder
same,Stability in Powder Concentrate (content by LCMSMS),[1]; day 450,0.049 mg/g powder
same,Stability in Powder Concentrate (content by LCMSMS),[1]; day 480,0.051 mg/g powder
same,Stability in Powder Concentrate (content by LCMSMS),[1]; day 510,0.049 mg/g powder
same,Stability in Powder Concentrate (content by LCMSMS),[1]; day 540,0.052 mg/g powder
same,Stability in Powder Concentrate (content by LCMSMS),[1]; day 570,0.048 mg/g powder
same,Stability of Cannabinoids in AB Red,"[2]; 8° C., 0 days",0.200 µg/mL
same,Stability of Cannabinoids in AB Red,"[2]; 8° C., 1 days",0.194 µg/mL
same,Stability of Cannabinoids in AB Red,"[2]; 8° C., 2 days",0.197 µg/mL
same,Stability of Cannabinoids in AB Red,"[2]; 8° C., 3 days",0.199 µg/mL
same,Stability of Cannabinoids in AB Red,"[2]; 8° C., 5 days",0.198 µg/mL
same,Stability of Cannabinoids in AB Red,"[2]; 8° C., 8 days",0.198 µg/mL
same,Stability of Cannabinoids in AB Red,"[2]; 8° C., 9 days",0.201 µg/mL
same,Stability of Cannabinoids in AB Red,"[2]; 8° C., 10 days",0.194 µg/mL
same,Stability of Cannabinoids in AB Red,"[2]; 8° C., 11 days",0.195 µg/mL
same,Stability of Cannabinoids in AB Red,"[2]; 8° C., 12 days",0.198 µg/mL
same,Stability of Cannabinoids in AB Red,"[2]; 8° C., 15 days",0.194 µg/mL
same,Stability of Cannabinoids in AB Red,"[2]; 8° C., 16 days",0.195 µg/mL
same,Stability of Cannabinoids in AB Red,"[2]; 8° C., 17 days",0.195 µg/mL
same,Stability of Cannabinoids in AB Red,"[2]; 8° C., 18 days",0.195 µg/mL
same,Stability of Cannabinoids in AB Red,"[2]; 8° C., 19 days",0.199 µg/mL
same,Stability of Cannabinoids in AB Red,"[2]; 8° C., 22 days",0.200 µg/mL
same,Stability of Cannabinoids in AB Red,"[2]; 8° C., 23 days",0.194 µg/mL
same,Stability of Cannabinoids in AB Red,"[2]; 8° C., 24 days",0.197 µg/mL
same,Stability of Cannabinoids in AB Red,"[2]; 8° C., 25 days",0.199 µg/mL
same,Stability of Cannabinoids in AB Red,"[2]; 8° C., 26 days",0.199 µg/mL
same,Stability of Cannabinoids in AB Red,"[2]; 8° C., 29 days",0.197 µg/mL
same,Stability of Cannabinoids in AB Red,"[2]; 8° C., 30 days",0.200 µg/mL
same,Stability of Cannabinoids in AB Red,"[2]; 8° C., 60 days",0.199 µg/mL
same,Stability of Cannabinoids in AB Red,"[2]; 8° C., 90 days",0.196 µg/mL
same,Stability of Cannabinoids in AB Red,"[2]; 8° C., 120 days",0.193 µg/mL
same,Stability of Cannabinoids in AB Red,"[2]; 8° C., 150 days",0.198 µg/mL
same,Stability of Cannabinoids in AB Red,"[2]; 8° C., 180 days",0.192 µg/mL
same,Stability of Cannabinoids in AB Red,"[2]; 8° C., 210 days",0.193 µg/mL
same,Stability of Cannabinoids in AB Red,"[2]; 8° C., 240 days",0.192 µg/mL
same,Stability of Cannabinoids in AB Red,"[2]; 8° C., 270 days",0.195 µg/mL
same,Stability of Cannabinoids in AB Red,"[2]; 8° C., 300 days",0.193 µg/mL
same,Stability of Cannabinoids in AB Red,"[2]; 8° C., 330 days",0.191 µg/mL
same,Stability of Cannabinoids in AB Red,"[2]; 8° C., 390 days",0.194 µg/mL
same,Stability of Cannabinoids in AB Red,"[2]; 8° C., 420 days",0.193 µg/mL
same,Stability of Cannabinoids in AB Red,"[2]; 8° C., 450 days",0.195 µg/mL
same,Stability of Cannabinoids in AB Red,"[2]; 8° C., 480 days",0.190 µg/mL
same,Stability of Cannabinoids in AB Red,"[2]; 8° C., 510 days",0.184 µg/mL
same,Stability of Cannabinoids in AB Red,"[2]; 8° C., 540 days",0.185 µg/mL
same,Stability of Cannabinoids in AB Red,"[2]; 8° C., 570 days",0.183 µg/mL
same,Stability of Cannabinoids in AB Red,"[2]; 21-25° C., 0 days",0.20 µg/mL
same,Stability of Cannabinoids in AB Red,"[2]; 21-25° C., 1 days",0.20 µg/mL
same,Stability of Cannabinoids in AB Red,"[2]; 21-25° C., 2 days",0.20 µg/mL
same,Stability of Cannabinoids in AB Red,"[2]; 21-25° C., 3 days",0.20 µg/mL
same,Stability of Cannabinoids in AB Red,"[2]; 21-25° C., 5 days",0.19 µg/mL
same,Stability of Cannabinoids in AB Red,"[2]; 21-25° C., 8 days",0.20 µg/mL
same,Stability of Cannabinoids in AB Red,"[2]; 21-25° C., 9 days",0.20 µg/mL
same,Stability of Cannabinoids in AB Red,"[2]; 21-25° C., 10 days",0.20 µg/mL
same,Stability of Cannabinoids in AB Red,"[2]; 21-25° C., 11 days",0.20 µg/mL
same,Stability of Cannabinoids in AB Red,"[2]; 21-25° C., 12 days",0.20 µg/mL
same,Stability of Cannabinoids in AB Red,"[2]; 21-25° C., 15 days",0.20 µg/mL
same,Stability of Cannabinoids in AB Red,"[2]; 21-25° C., 16 days",0.19 µg/mL
same,Stability of Cannabinoids in AB Red,"[2]; 21-25° C., 17 days",0.20 µg/mL
same,Stability of Cannabinoids in AB Red,"[2]; 21-25° C., 18 days",0.20 µg/mL
same,Stability of Cannabinoids in AB Red,"[2]; 21-25° C., 19 days",0.19 µg/mL
same,Stability of Cannabinoids in AB Red,"[2]; 21-25° C., 22 days",0.20 µg/mL
same,Stability of Cannabinoids in AB Red,"[2]; 21-25° C., 23 days",0.19 µg/mL
same,Stability of Cannabinoids in AB Red,"[2]; 21-25° C., 24 days",0.19 µg/mL
same,Stability of Cannabinoids in AB Red,"[2]; 21-25° C., 25 days",0.19 µg/mL
same,Stability of Cannabinoids in AB Red,"[2]; 21-25° C., 26 days",0.19 µg/mL
same,Stability of Cannabinoids in AB Red,"[2]; 21-25° C., 29 days",0.19 µg/mL
same,Stability of Cannabinoids in AB Red,"[2]; 21-25° C., 30 days",0.20 µg/mL
same,Stability of Cannabinoids in AB Red,"[2]; 21-25° C., 60 days",0.20 µg/mL
same,Stability of Cannabinoids in AB Red,"[2]; 21-25° C., 90 days",0.19 µg/mL
same,Stability of Cannabinoids in AB Red,"[2]; 21-25° C., 120 days",0.19 µg/mL
same,Stability of Cannabinoids in AB Red,"[2]; 21-25° C., 150 days",0.20 µg/mL
same,Stability of Cannabinoids in AB Red,"[2]; 21-25° C., 180 days",0.20 µg/mL
same,Stability of Cannabinoids in AB Red,"[2]; 21-25° C., 210 days",0.19 µg/mL
same,Stability of Cannabinoids in AB Red,"[2]; 21-25° C., 240 days",0.20 µg/mL
same,Stability of Cannabinoids in AB Red,"[2]; 21-25° C., 270 days",0.20 µg/mL
same,Stability of Cannabinoids in AB Red,"[2]; 21-25° C., 300 days",0.19 µg/mL
same,Stability of Cannabinoids in AB Red,"[2]; 21-25° C., 330 days",0.19 µg/mL
same,Stability of Cannabinoids in AB Red,"[2]; 21-25° C., 390 days",0.19 µg/mL
same,Stability of Cannabinoids in AB Red,"[2]; 21-25° C., 420 days",0.19 µg/mL
same,Stability of Cannabinoids in AB Red,"[2]; 21-25° C., 450 days",0.19 µg/mL
same,Stability of Cannabinoids in AB Red,"[2]; 21-25° C., 480 days",0.19 µg/mL
same,Stability of Cannabinoids in AB Red,"[2]; 21-25° C., 510 days",0.19 µg/mL
same,Stability of Cannabinoids in AB Red,"[2]; 21-25° C., 540 days",0.19 µg/mL
same,Stability of Cannabinoids in AB Red,"[2]; 21-25° C., 570 days",0.18 µg/mL
